# How the values were obtained:
# [1] = tested on: RORα; experiment: Gal4-RORα co-transfection promoter-reporter assay; format: cell-based; settings: Gal4 assay format
# Method: (§1) Reporter gene assays: Twenty-four hours before transfection, HEK293T cells were plated in 96-well plates at a density of 15×10^3 cells per well. UAS:luciferase reporter and Ga14-RORa, Gal4-RORb, Gal4-RORγ, Gal4-LXRα, or Gal4 PPARγ DNA co-transfections were performed using X-tremeGENE 9 (Roche). Twenty-four hours after transfection, the cells were treated with vehicle or compound. Twenty-four hours after treatment, the luciferase activity was measured using the Dual-Glo luciferase assay system (Promega). Results were analyzed using GraphPad Prism software.
# [2] = tested on: RORβ; experiment: Gal4-RORβ co-transfection promoter-reporter assay; format: cell-based; settings: Gal4 assay format
# Method: as §1
# [3] = biological target: T1, LXRα LBD (Homo sapiens, UniProt Q13133); experiment: Differential HDX-MS of LXRα LBD; format: binding; settings: 1:10 molar excess of ligand
# T1 construct: 10 μM of the apo protein (LXRα LBD and PPARγ LBD) was mixed with 1:10 molar excess of ligand
# T1 sequence (Q13133 209-447 limits assumed): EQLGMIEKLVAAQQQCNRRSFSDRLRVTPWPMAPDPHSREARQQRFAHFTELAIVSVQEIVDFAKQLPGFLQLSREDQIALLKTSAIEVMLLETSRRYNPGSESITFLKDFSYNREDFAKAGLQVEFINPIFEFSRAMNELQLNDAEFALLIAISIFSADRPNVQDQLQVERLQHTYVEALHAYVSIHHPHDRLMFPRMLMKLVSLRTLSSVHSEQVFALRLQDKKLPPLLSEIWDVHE
# Method: Hydrogen-deuterium exchange (HDX) detected by mass spectrometry (MS): Solution-phase amide HDX experiments were carried out with a fully automated system (CTC HTS PAL, LEAP Technologies, Carrboro, NC; housed inside a 4° C. cabinet) as described previously with the modifications described below^41.
# Peptide Identification: Peptides were identified using tandem MS (MS/MS) experiments performed with a QExactive (ThermoFisher, San Jose, CA) over a 70 min gradient. Product ion spectra were acquired in a data-dependent mode and the five most abundant ions were selected for the product ion analysis per scan event. […]
# Hydrogen/deuterium exchange (HDX) analysis: 10 μM of the apo protein (LXRα LBD and PPARγ LBD) was mixed with 1:10 molar excess of ligand and incubated for 2 hours at 4° C. for complex formation before subjecting them to HDX analysis. […] The intensity weighted mean m/z centroid value of each peptide envelope was calculated and subsequently converted into a percentage of deuterium incorporation. […] In the absence of a fully deuterated control, 100% deuterium incorporation was calculated theoretically, and corrections for back-exchange were made on the basis of an estimated 70% deuterium recovery and accounting for 80% final deuterium concentration in the sample (1:5 dilution in D2O HDX buffer). […]
# [4] = tested on: EL4 cells; experiment: RORγ target gene expression in PMA/ionomycin stimulated EL4 cells; format: cell-based; settings: PMA and ionomycin, compound at 10 μM
# Excerpt: FIG. 1D is a graph showing PPARγ target genes (aP2 and CD36) expression in OP9 cells with and without MDI (IBMX, dexamethasone, insulin) treatment. […] Specific residues driving the interaction labelled and shown as sticks as well. […] Quantitative RT-PCR: Total RNA was extracted from EL4 or RAW264.7 cells using RNeasy Plus Micro Kit (Qiagen) and the RNA was reverse transcribed using the ABI reverse transcription kit (Applied Biosystems/Thermo Fisher Scientific, Waltham MA). Quantitative PCR was performed with a 7900HT Fast Real Time PCR System (Applied Biosystems) using SYBR green (Roche).
# [5] = tested on: murine TREM1 promoter; experiment: TREM1 promoter reporter (luciferase) assay; format: cell-based, Mus musculus
# Method: Each LXRβ, PPARγ, and RORγ full length plasmid was co-transfected with TREM1/pGL3 using X-tremeGENE 9 into HEK293T cells. After 48 hrs, luciferase activity was measured using BriteLite plus assay system (PerkinElmer).
compound,measurement,setting,value
"Cc1cc(CN2CCN(Cc3ccncc3)CC2)ccc1-c1ccc(C(O)(C(F)(F)F)C(F)(F)F)cc1 [SR1903, 1,1,1,3,3,3-hexafluoro-2-(2′-methyl-4′-((4-(pyridin-4-ylmethyl)piperazin-1-yl)methyl)-[1,1′-biphenyl]-4-yl)propan-2-ol]",activity on RORα,[1],lack activity
same,activity on RORβ,[2],lack activity
same,deuterium exchange of LXRα LBD,[3],makes a direct interaction with the receptor
same,IL17A expression,[4],repressed
same,IL17F expression,[4],repressed
same,effect on TREM1 promoter activity,[5]; co-expression with PPARγ and LXRβ,little effect
same,attenuation of TREM1 promoter activity,[5]; co-expression with RORγ,~50%
